Where a name gives a salt, the structure may show the parent alone.
Legend:
[1] = biological target: T1, hP2X3 receptor (Homo sapiens, UniProt P56373); assay: Antagonistic activity against hP2X3 receptor by FLIPR calcium flow assay; assay type: cell-based; details: for IC50: human cells stably transfected with hP2X3, agonist α,β-meATP 400 nM; for antagonistic activity against hP2X3 receptor compared with Reference compound 1 (in words): vs Reference compound 1
T1 construct: expressed in transfected cells
T1 sequence (P56373 1-397): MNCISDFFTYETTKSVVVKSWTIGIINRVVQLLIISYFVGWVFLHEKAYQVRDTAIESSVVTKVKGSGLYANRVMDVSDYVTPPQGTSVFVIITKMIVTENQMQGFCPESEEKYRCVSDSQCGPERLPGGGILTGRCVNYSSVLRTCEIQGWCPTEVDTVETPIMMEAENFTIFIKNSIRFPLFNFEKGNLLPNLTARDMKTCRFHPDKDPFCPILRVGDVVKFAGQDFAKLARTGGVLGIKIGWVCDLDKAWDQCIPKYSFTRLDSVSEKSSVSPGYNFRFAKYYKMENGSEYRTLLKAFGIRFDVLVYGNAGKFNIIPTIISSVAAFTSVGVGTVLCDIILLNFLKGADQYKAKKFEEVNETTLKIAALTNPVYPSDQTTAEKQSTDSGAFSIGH
Experimental: The antagonistic activity of hP2X3 antagonists against hP2X3 receptor was evaluated by means of FLIPR Calcium 4 Assay Kit (Molecular Devices, R8141) and FLIPR TETRA instrument (Molecular Devices, 0296) by detecting calcium flow signals. 24h before the experiment, human cells, which had been stably transfected with hP2X3 receptors, were plated on a 384-well plate at 2×10^5 cells/mL, with 50 μL of cell suspension per well, and the plate was cultured in an incubator (37° C., 5% CO2) for 16 h to 24 h. The test compound solution (20 to 50 mM DMSO stock solution) with a concentration of 180 times the required concentration was prepared using DMSO. The stock solution was added to the 384-well plate at 500 nL per well, supplemented with 30 μL of FLIPR Assay buffer (1×HBSS+2 mM CaCl2 20 mM HEPES containing 1.26 mM Ca^2+). The 384-well plate was shaken for 20 to 40 min to mix evenly. An agonist (α, β-meATP) with a concentration of 3 times the required concentration (required final concentration was 400 nM) was prepared with FLIPR Assay buffer, and was added to another 384-well plate at 45 μL per well. The culture plate, on which the cells were plated one day ago, was taken, the cell supernatant was sucked and discarded, each well was added with 30 μL of Dye (FLIPR® Calcium 4 Assay Kit, diluted with FLIPR buffer), and then the plate was incubated for 1h. 15 μL of compound was added to each well of cells (using FLIPR sample injector). After 15 minutes, 22.5 μL of the agonist was added to each well, and the fluorescence signal (exciting light wavelength ranging from 470 nm to 495 nm, and emission wavelength ranging from 515 nm to 575 nm) was detect. […] An inhibition effect curve of the compound was fitted on the software GraphpadPrism6, and the IC50 value was calculated.

[2] = Pharmacokinetic assay in mouse; assay type: in vivo, ICR mice
Experimental: For a mouse pharmacokinetic assay, male ICR mice (20 g to 25 g) were selected and fasted overnight. Three mice were intragastrically administered with 10 mg/kg of the corresponding compound. The blood of the mice was collected before the administration and at 15 min, 30 min, 1 h, 2 h, 4 h, 8 h, and 24 h after the administration. The blood samples were centrifuged at 4° C. for 6 minutes at 6,800 g, plasma was collected and stored at −80° C.
The supernatant was mixed with 3 times the amount of water, and an appropriate amount of the mixed solution was taken for LC-MS/MS analysis. The primary pharmacokinetic parameters were analyzed by WinNonlin 7.0 software non-atrioventricular model.

[3] = system: rat taste; assay: Taste test in rat (water vs 0.3 mM aqueous quinine solution intake); assay type: in vivo, SD rats; details: SD rats, 30 mg/kg i.p, 0.3 mM quinine, 15 min supply half an hour after administration
Experimental: SD rats were administered with the corresponding compound after 3 days of overnight water prohibition training. Each rat was supplied with 1 bottle of water and 1 bottle of 0.3 mM aqueous quinine solution half an hour after the administration. After 15 min of water supply, the bottles were removed. The intake amount of water and the intake amount of the 0.3 mM aqueous quinine solution were measured, respectively. The taste influence of the compound on SD rats was evaluated based on the difference between the intake amount of water and the intake amount of the aqueous quinine solution.

[4] = system: histamine/citric acid-stimulated cough in guinea pig; assay: Efficacy test for histamine/citric acid-stimulated cough in guinea pig; assay type: in vivo; details: guinea pigs, nasal drops, 0.17 mg/kg to 1.5 mg/kg, histamine/citric acid stimulation
Experimental: Guinea pigs were adaptively fed for 3 days to 7 days before being grouped. When the body weight of the guinea pigs reached 300 g to 400 g, they were numbered and randomly grouped.
Compounds or an excipient were administered to guinea pigs by nasal drops 0.25 hour to 24 hours before the start of the cough assessment. The administration dose of the test sample ranged from 0.17 mg/kg to 1.5 mg/kg. For the cough assessment, the guinea pigs were placed in a whole-body volume scan box for adaptation, and then, they were provided with histamine nebulization and then citric acid nebulization. […]
The experimental data was statistically analyzed by one-way ANOVA to analyze and compare data of the various groups. The statistical analysis result p<0.05 was regarded as a significant difference. The t-test was employed for difference comparison between any two.

[5] = mouse, plasma, po, male ICR mice, intragastric administration, 10 mg/kg

For `Cc1cnc(-c2cc(OC(C)C(C)O)cc(C(=O)N[C@H](C)c3cnc(C(F)(F)F)nc3)c2F)s1` (single isomer, unassigned) [Compound I-4], which IC50 [1] is on record?
Its IC50 is 63 nM.

What about the “antagonistic activity against hP2X3 receptor compared with Reference compound 1 (in words)” value [1] of the same compound?
Its value is “better antagonistic activity”.

For `Cc1cnc(-c2cc(OC(C)C(C)O)cc(C(=O)N[C@H](C)c3cnc(C(F)(F)F)nc3)c2F)s1` (single isomer, unassigned) [Compound I-5], which IC50 [1] is on record?
The IC50 was 50 nM.

What about the “antagonistic activity against hP2X3 receptor compared with Reference compound 1 (in words)” value [1] of the same compound?
The value was “better antagonistic activity”.

With `Cc1cnc(-c2cc(O[C@@H]3CCOC3)c(F)c(C(=O)N[C@H](C)c3cnc(C(F)(F)F)nc3)c2)s1` [Compound I-2, 2-fluoro-5-(5-methylthiazol-2-yl)-3-(((R)-tetrahydrofuran-3-yl)oxy)-N—((R)-1-(2-(trifluoromethyl)pyrimidin-5-yl)ethyl)benzamide] as the compound, how does the IC50 [1] read?
Its IC50 is 298 nM.

Which IC50 [1] does the source give for `Cc1cnc(-c2cc(C(=O)N[C@H](C)c3cnc(C(F)(F)F)nc3)cc(O[C@@H]3CCOC3)c2F)s1` [Compound I-3, 4-fluoro-3-(5-methylthiazol-2-yl)-5-(((R)-tetrahydrofuran-3-yl)oxy)-N—((R)-1-(2-(trifluoromethyl)pyrimidin-5-yl)ethyl)benzamide] here?
The IC50 was 168 nM.

Which IC50 [1] does the source give for `CC(O)C(C)Oc1cc(C(=O)N[C@H](C)c2cnc(C(F)(F)F)nc2)c(F)c(-c2ncc(Cl)s2)c1` (stereo partly drawn) [Compound I-7, 3-(5-chlorothiazol-2-yl)-2-fluoro-5-((cis-3-hydroxybutan-2-yl)oxy)-N—((R)-1-(2-(trifluoromethyl)pyrimidin-5-yl)ethyl)benzamide] here?
The IC50 was 271 nM.

Which IC50 [1] does the source give for `Cc1cnc(-c2cc(OC[C@@H]3COCCN3C)cc(C(=O)N[C@H](C)c3cnc(C(F)(F)F)nc3)c2F)s1` [Compound I-9, 2-fluoro-5-(((S)-4-methylmorpholin-3-yl)methoxy)-3-(5-methylthiazol-2-yl)-N—((R)-1-(2-(trifluoromethyl)pyrimidin-5-yl)ethyl)benzamide] here?
The IC50 was 305 nM.

For `Cc1cnc(-c2cc(OC3COC3)cc(C(=O)N[C@H](C)c3cnc(C(F)(F)F)nc3)c2F)s1` [Compound I-14, (R)-2-fluoro-3-(5-methylthiazol-2-yl)-5-(oxetane-3-yloxy)-N-(1-(2-(trifluoromethyl)pyrimidin-5-yl)ethyl)benzamide], which IC50 [1] is on record?
The IC50 was 99 nM.

And the “antagonistic activity against hP2X3 receptor compared with Reference compound 1 (in words)” value [1]?
Its value is “better antagonistic activity”.

For `Cc1cnc(-c2cc(OCC3CC3)cc(C(=O)N[C@H](C)c3cnc(C(F)(F)F)nc3)c2F)s1` [Compound I-15, (R)-5-(cyclopropylmethoxy)-2-fluoro-3-(5-methylthiazol-2-yl)-N-(1-(2-(trifluoromethyl)pyrimidin-5-yl)ethyl)benzamide], which IC50 [1] is on record?
Its IC50 is 1360 nM.

For `Cc1cnc(-c2cc(OC3CCN(C)CC3)cc(C(=O)N[C@H](C)c3cnc(C(F)(F)F)nc3)c2F)s1` [Compound I-16, (R)-2-fluoro-5-((1-methylpiperidin-4-yl)oxy)-3-(5-methylthiazol-2-yl)-N-(1-(2-(trifluoromethyl)pyrimidin-5-yl)ethyl)benzamide], which IC50 [1] is on record?
Its IC50 is 433 nM.

For `Cc1cnc(-c2cc(OC3CCNCC3)cc(C(=O)N[C@H](C)c3cnc(C(F)(F)F)nc3)c2F)s1` [Compound I-17, (R)-2-fluoro-5-((1-piperidin-4-yl)oxy)-3-(5-methylthiazol-2-yl)-N-(1-(2-(trifluoromethyl)pyrimidin-5-yl)ethyl)benzamide], which IC50 [1] is on record?
The IC50 was 388 nM.

Which IC50 [1] does the source give for `Cc1cnc(-c2cc(OC[C@H]3CNCCO3)cc(C(=O)N[C@H](C)c3cnc(C(F)(F)F)nc3)c2F)s1` [Compound I-18, 2-fluoro-3-(5-methylthiazol-2-yl)-5-(((R)-morpholin-2-yl)methoxy)-N—((R)-1-(2-(trifluoromethyl)pyrimidin-5-yl)ethyl)benzamide hydrochloride] here?
The IC50 was 448 nM.

For `Cc1cnc(-c2cc(OC[C@H]3CN(C)CCO3)cc(C(=O)N[C@H](C)c3cnc(C(F)(F)F)nc3)c2F)s1` [Compound I-19, 2-fluoro-5-(((R)-4-methylmorpholin-2-yl)methoxy)-3-(5-methylthiazol-2-yl)-N—((R)-1-(2-(trifluoromethyl)pyrimidin-5-yl)ethyl)benzamide], which IC50 [1] is on record?
The IC50 was 310 nM.

With `[2H]C([2H])([2H])N1CCO[C@@H](COc2cc(C(=O)N[C@H](C)c3cnc(C(F)(F)F)nc3)c(F)c(-c3ncc(C)s3)c2)C1` [Compound I-20, 2-fluoro-5-(((R)-4-(methyl-d3)morpholin-2-yl)methoxy)-3-(5-methylthiazol-2-yl)-N—((R)-1-(2-(trifluoromethyl)pyrimidin-5-yl)ethyl)benzamide] as the compound, how does the IC50 [1] read?
Its IC50 is 373 nM.

What does the source list for `Cc1cnc(-c2cc(O[C@@H](C)[C@H](C)O)cc(C(=O)N[C@H](C)c3cnc(C(F)(F)F)nc3)c2F)s1` [Compound I-28, 2-fluoro-5-(((2S, 3S)-3-hydroxybutan-2-yl)oxy)-3-(5-methylthiazol-2-yl)-N—((R)-1-(2-(trifluoromethyl)pyrimidin-5-yl)ethyl)benzamide]?
pharmacokinetic properties in mouse compared with Reference compound 1 and Reference compound 2 (in words) ([2]; mouse assay, vs Reference compounds 1 and 2): significantly improved pharmacokinetic properties; AUC(0-t) [2, 5]: 8760 ng·h/mL; Cmax [2, 5]: 2400 ng/mL; Tmax [2, 5]: 0.5 h; half-life ([2]; mouse, plasma, po, male ICR mice, intragastric administration, 10 mg/kg, read-out: T½ (converted)): 2.65 h; Water/aqueous quinine solution (ratio of water intake to aqueous quinine solution intake) [3]: 15.4; IC50 [1]: 63 nM; antagonistic activity against hP2X3 receptor compared with Reference compound 1 (in words) [1]: better antagonistic activity; Average cough times within 15 min [4]: 9.1; Cough inhibition rate vs. solvent [4]: 65.8%

Reference: patent US20230227445A1, “BENZAMIDE COMPOUND AND USE THEREOF” (HUMANWELL HEALTHCARE (GROUP) CO., LTD., priority 2020, published 2023)
